PubChem BioAssay (NCI)
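Step 1: Grow cells in 96-well plates. Step 2: Expose to compound for 48 hours at 5 concentrations. Step 3: Interpolate endpoints linearly; if unreached, use highest concentration. At the GI50, growth is halved. TGI is the concentration that stops growth completely.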

Legend:
Assay in all cases: inhibition of tumour cell growth, NCI panel, 48 h
[1] = test system: SF-268 CNS
[2] = test system: HT29 colon
[3] = test system: SK-MEL-2 melanoma
[4] = test system: HOP-92 NSCLC
[5] = test system: OVCAR-8 ovarian
[6] = test system: LOX IMVI melanoma
[7] = test system: SNB-75 CNS
[8] = test system: OVCAR-4 ovarian
[9] = test system: UO-31 renal
[10] = test system: OVCAR-3 ovarian

| SMILES | TGI [1] [µM] | TGI [2] [µM] | TGI [3] [µM] | TGI [4] [µM] | TGI [5] [µM] | TGI [6] [µM] | TGI [7] [µM] | TGI [8] [µM] | TGI [9] [µM] | TGI [10] [µM] | GI50 [1] [µM] | GI50 [2] [µM] | GI50 [3] [µM] | GI50 [4] [µM] | GI50 [10] [µM] | GI50 [5] [µM] | GI50 [6] [µM] | GI50 [7] [µM] | GI50 [8] [µM] | GI50 [9] [µM] |
| --- | --- | --- | --- | --- | --- | --- | --- | --- | --- | --- | --- | --- | --- | --- | --- | --- | --- | --- | --- | --- |
| CCCCNC(=S)Nn1c(-c2ccccc2)nc2ccccc2c1=O | > 100 | > 100 | > 100 | > 100 | > 100 | > 100 | > 100 | > 100 | > 100 |  |  |  |  |  |  |  |  |  |  |  |
| C[N+](C)(C)CC(=O)N/N=C(/C=C/c1ccccc1)CC1OC(=O)c2ccccc21 (stereo not drawn) | > 100 | > 10 | > 100 | > 10 | > 100 | > 10 | > 100 | > 100 | > 100 |  |  |  |  |  |  |  |  |  |  |  |
| CCCCN(CCCC)C(=Nc1ccccc1)N(CCCC)CCCC | 46.8 | > 100 | 18.9 | 7.06 | 24.9 | 13.6 | 37.7 |  | 14.3 | 12.1 |  |  |  |  |  |  |  |  |  |  |
| COC(=O)C1Cc2c([nH]c3ccccc23)[C@H](CC(C)C)N1 (stereo partly drawn) | > 100 | > 100 | > 100 | > 100 | > 100 | > 100 | > 100 |  | > 100 | > 100 |  |  |  |  |  |  |  |  |  |  |
| Nc1nc2nc3c(nc2c(=O)[nH]1)CN(c1ccc(C(=O)O)cc1)C3=O | > 100 | > 100 | > 100 | > 100 | > 100 | > 100 | > 100 | > 100 | > 100 |  |  |  |  |  |  |  |  |  |  |  |
| COc1ccc(CCNc2nc3ccccc3c3[nH]c4ccccc4c23)cc1OC | 20.6 | 6.32 | 3.77 | 8 | 5.54 | 5.38 | 28.4 | 12.8 |  | 4.24 | 4.77 | 2.04 | 1.98 | 2.43 | 1.98 | 2.02 | 2.28 | 14.3 | 3.15 |  |
| CC(=O)NNc1nc(C)c(C(/C=C/c2ccc(/C=C/C(=N\NC(=O)c3ccncc3)c3sc(NNC(C)=O)nc3C)cc2)=N/NC(=O)c2ccncc2)s1 | > 100 | > 100 | > 100 | > 100 | > 100 | > 100 | > 100 |  | > 100 | > 100 |  |  |  |  |  |  |  |  |  |  |
| COc1cc[c]([Hg][Cl])cc1 | 13.3 | 61 | 17.4 | 4.01 | > 100 | 2.74 | 4.37 | 11.5 | 28.9 |  | 3.27 | 5.4 | 4.39 | 2.26 |  | 6.11 | 1.42 | 1.69 | 1.96 | 14.6 |
| CC(=O)O[C@@H]1C=CC(=O)C2(CC(=O)O[C@@H]2/C=C(\C)CCC=C(C)C)C1 (stereo partly drawn) | 2.31 | 73.9 | 4.43 | 3.94 | 1.81 | 0.743 | 2.83 |  | 3.59 | 1.6 | 1.05 | 0.529 | 1.51 | 1.59 | 0.435 | 0.35 | 0.229 | 1.33 |  | 1.58 |
| C=CCCc1cc(OC)ccc1CN(C)C(C)(C)CO | > 100 | > 100 | > 100 | > 100 | > 100 | > 100 | > 100 | > 100 |  | > 100 |  |  |  |  |  |  |  |  |  |  |
| C=C1C(=O)OC2C1C(OC(=O)/C(=C/C)COC(C)=O)CC1(CO1)C1C(OC(=O)/C(=C/C)CO)C=C(C)C21 (stereo not drawn) | 9.35 | 7.48 | 3.63 |  | 25.3 | 11.9 | 15.6 | 7.53 | 11.2 | 12.2 |  |  |  |  |  |  |  |  |  |  |
| CCOC(=O)C(C(=O)c1ccccc1-c1ccccc1C(=O)O)=P(c1ccccc1)(c1ccccc1)c1ccccc1 | > 100 | > 100 | 40.3 |  | > 100 | 40.8 | 47.8 | 43.6 |  | 67 |  |  |  |  |  |  |  |  |  |  |
| COc1ccc(C(=O)/C=C/c2ccc(Cl)cc2)cc1S(N)(=O)=O | 11.9 | 10.5 | 25.7 | 5.78 | 10.2 | 2.65 |  | 12.6 | 5.76 | 4.45 | 3.13 | 3.27 | 12.4 | 2.14 | 2.04 | 3.55 | 1.28 |  | 3.46 | 1.89 |
| Cn1cc(-c2ccc3cc(-c4ccc(CC(=O)Nc5cc(C(C)(C)C)nn5C)cc4)cnc3c2)cn1 | > 100 | > 100 |  | > 100 | > 100 | > 100 | > 100 | > 100 |  | > 100 | 0.294 | 0.377 | 0.138 | 0.401 | 0.336 | 0.274 | 0.284 | 0.0723 | 0.159 |  |
| O=C(Nc1nc2ncn(CCOC(=O)c3ccccc3)c2c(=O)[nH]1)c1ccccc1 | > 100 | > 37.9 | > 100 | > 75.6 | > 100 | > 100 | > 71.7 |  | > 100 | > 100 |  |  |  |  |  |  |  |  |  |  |
